Source: patent US20240252488A1 (KOREA RESEARCH INSTITUTE OF CHEMICAL TECHNOLOGY, priority 2020, published 2024)
Counter-ions that a name gives are not always drawn.

Tests used:
MLKL = target: T1, MLKL (Homo sapiens, UniProt Q8NB16); experiment: Measurement of binding affinity with MLKL receptor (competitive binding assay, Kd); set-up: made in house; host or cells: HEK 293 cell line (T7 phage in E. coli BL21-derived host is also described)
T1 sequence (Q8NB16 1-471): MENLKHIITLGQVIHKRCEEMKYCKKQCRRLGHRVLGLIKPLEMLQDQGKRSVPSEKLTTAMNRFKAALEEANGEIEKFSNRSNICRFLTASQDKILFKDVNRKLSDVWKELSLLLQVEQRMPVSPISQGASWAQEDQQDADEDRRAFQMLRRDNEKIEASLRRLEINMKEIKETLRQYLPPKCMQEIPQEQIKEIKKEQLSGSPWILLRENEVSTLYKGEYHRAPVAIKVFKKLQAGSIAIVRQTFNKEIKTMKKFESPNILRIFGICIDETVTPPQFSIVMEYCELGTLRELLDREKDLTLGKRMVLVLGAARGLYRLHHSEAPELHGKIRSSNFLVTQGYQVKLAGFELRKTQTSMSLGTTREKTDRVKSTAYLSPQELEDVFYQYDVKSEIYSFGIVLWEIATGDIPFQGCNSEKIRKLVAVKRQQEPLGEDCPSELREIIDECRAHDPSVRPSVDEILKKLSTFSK
Procedure: Measurement of Binding Affinity with MLKL Receptor (Competitive Binding Assay)
The binding affinity was evaluated by measuring the Kd value in the following method.
To prepare kinase-tagged T7 phage strains in an E. coli host derived from the BL21 strain, E. coli were grown to log-phase and infected with T7 phage and incubated with shaking at 32° C. until lysis. The lysates were centrifuged and filtered to remove cell debris. For kinase production, it was expressed in human embryonic kidney cell line (HEK 293 cell line), and subsequently tagged with DNA for qPCR detection.
The liganded beads were blocked with excess biotin and washed with blocking buffer (SeaBlock (Pierce), 1% BSA, 0.05% Tween 20, 1 mM DTT) to remove unbound ligand and to reduce non-specific binding. […] Test compounds were prepared as 111× stocks in 100% DMSO.
The compounds were then diluted directly into the assays such that the final concentration of DMSO was 0.9%. All reactions performed in polypropylene 384-well plate. Each was a final volume of 0.02 ml. […] The kinase concentration in the eluates was measured by qPCR.

FADD−/− Jurkat cells = experiment: Necroptosis inhibition assay, TNF-α-induced necroptosis (CellTiter-Glo 2.0); assay type: cell-based, human; conditions: TNF-α 15 ng/mL; for Necroptosis inhibition assay (Rescue %) 1 μM: compound 1 μM; for Necroptosis inhibition assay (Rescue %) 10 μM: compound 10 μM
Procedure: Necroptosis Inhibition Assay
Necroptosis inhibition was evaluated by the following method.
80 μL of FADD gene-defective human T lymphocyte cells (FADD−/− Jurkat cells) were equally distributed into each well at 5.0×10^5 cells/mL in a white 96-well plate with a transparent bottom. 20 μL of the medium containing test compound was treated in each well so that the final concentration of the compound was 0.1, 1, and 10 μM, and reacted at room temperature for 30 minutes. After the 30-minute reaction was over, TNF (tumor necrosis factor)-α was treated in the corresponding well so that the final concentration of TNF-α was 15 ng/mL in order to induce necroptosis. It was cultured in a 5% CO2, 37° C. incubator for 20 to 24 hours.
After incubation, the 96-well plate was left at room temperature for 30 minutes. After 30 minutes, Promega's CellTiter-Glo 2.0 reagent was diluted 1:3 with PBS and 100 μL of the diluted solution was added to each well to confirm cell viability by measuring the amount of ATP. After the treatment, the plate was shielded from light and incubated at room temperature for 2 minutes with orbital shaking, and then left at room temperature for 10 minutes without shaking. After measuring the luminescence at 0.5 seconds per well using a plate scanner, the cytotoxicity and necroptosis inhibition rate for the compound were calculated using the measured values.

Nc1ncc(C2=CCN(C(=O)CCCCCNC(=O)C3CCN(c4ccc5c(c4)C(=O)N(C4CCC(=O)NC4=O)C5=O)CC3)CC2)cc1C(=O)O[C@@H](C(=O)Nc1ccc(F)cc1)c1ccccc1 (stereo partly drawn) [TDH-074, (R)-2-((4-fluorophenyl)amino)-2-oxo-1-phenylethyl 6-amino-1′-(6-(1-(2-(2,6-dioxopiperidin-3-yl)-1,3-dioxoisoindolin-5-yl)piperidine-4-carboxamido)hexanoyl)-1′,2′,3′,6′-tetrahydro-[3,4′-bipyridine]-5-carboxylate]
Kd (MLKL): 74 nM | Necroptosis inhibition assay (Rescue %) 1 μM (FADD−/− Jurkat cells): 14.54% | Necroptosis inhibition assay (Rescue %) 10 μM (FADD−/− Jurkat cells): 3.61%

Nc1ncc(-c2cnn(C3CCN(CCCN4CCN(C(=O)CNc5ccc6c(c5)C(=O)N(C5CCC(=O)NC5=O)C6=O)CC4)CC3)c2)nc1C(=O)N[C@@H](C(=O)Nc1ccc(F)cc1)c1ccccc1 (stereo partly drawn) [TDH-493, 3-amino-6-(1-(1-(3-(4-((2-(2,6-dioxopiperidin-3-yl)-1,3-dioxoisoindolin-5-yl)glycyl)piperazin-1-yl)propyl)piperidin-4-yl)-1H-pyrazol-4-yl)-N-((R)-2-((4-fluorophenyl)amino)-2-oxo-1-phenylethyl)pyrazine-2-carboxamide]
Kd (MLKL): 91 nM | Necroptosis inhibition assay (Rescue %) 1 μM (FADD−/− Jurkat cells; FADD−/− Jurkat cells): 1.49% | Necroptosis inhibition assay (Rescue %) 10 μM (FADD−/− Jurkat cells; FADD−/− Jurkat cells): −3.98%

Nc1ncc(-c2cnn(C3CCN(CC4CCN(C(=O)C5CCN(c6ccc7c(c6)C(=O)N(C6CCC(=O)NC6=O)C7=O)CC5)CC4)CC3)c2)nc1C(=O)N[C@@H](C(=O)Nc1ccc(F)cc1)c1ccccc1 (stereo partly drawn) [TDH-210, 3-amino-6-(1-(1-((1-(1-(2-(2,6-dioxopiperidin-3-yl)-1,3-dioxoisoindolin-5-yl)piperidine-4-carbonyl)piperidin-4-yl)methyl)piperidin-4-yl)-1H-pyrazol-4-yl)-N-((R)-2-((4-fluorophenyl)amino)-2-oxo-1-phenylethyl)pyrazine-2-carboxamide]
Kd (MLKL): 300 nM | Necroptosis inhibition assay (Rescue %) 1 μM (FADD−/− Jurkat cells): 7.5% | Necroptosis inhibition assay (Rescue %) 10 μM (FADD−/− Jurkat cells): 10.08%

Nc1ncc(-c2cnn(C3CCN(CCOCCOCCNc4ccc5c(c4)C(=O)N(C4CCC(=O)NC4=O)C5=O)CC3)c2)nc1C(=O)N[C@@H](C(=O)Nc1ccc(F)cc1)c1ccccc1 (stereo partly drawn) [TDH-216, 3-amino-6-(1-(1-(2-(2-(2-((2-(2,6-dioxopiperidin-3-yl)-1,3-dioxoisoindolin-5-yl)amino)ethoxy)ethoxy)ethyl)piperidin-4-yl)-1H-pyrazol-4-yl)-N-((R)-2-((4-fluorophenyl)amino)-2-oxo-1-phenylethyl)pyrazine-2-carboxamide]
Kd (MLKL): 43 nM | Necroptosis inhibition assay (Rescue %) 1 μM (FADD−/− Jurkat cells): 21.7% | Necroptosis inhibition assay (Rescue %) 10 μM (FADD−/− Jurkat cells): 38.63%

Nc1ncc(-c2cnn(C3CCN(CCCCCCNc4ccc5c(c4)C(=O)N(C4CCC(=O)NC4=O)C5=O)CC3)c2)nc1C(=O)O[C@@H](C(=O)Nc1ccc(F)cc1)c1ccccc1 (stereo partly drawn) [TDH-120, (R)-2-((4-fluorophenyl)amino)-2-oxo-1-phenylethyl 3-amino-6-(1-(1-(6-((2-(2,6-dioxopiperidin-3-yl)-1,3-dioxoisoindolin-5-yl)amino)hexyl)piperidin-4-yl)-1H-pyrazol-4-yl)pyrazine-2-carboxylate]
Kd (MLKL): 1.7 nM | Necroptosis inhibition assay (Rescue %) 1 μM (FADD−/− Jurkat cells): 10.65%

CC(C)(C)OC(=O)N1CC=C(c2cnc(N)c(C(=O)O[C@@H](C(=O)Nc3ccc(F)cc3)c3ccccc3)c2)CC1 [TDH-066, (R)-1′-(tert-butyl) 5-(2-((4-fluorophenyl)amino)-2-oxo-1-phenylethyl) 6-amino-3′,6′-dihydro-[3,4′-bipyridine]-1′,5(2′H)-dicarboxylate]
Kd (MLKL): 650 nM

Nc1nccnc1C(=O)O[C@@H](C(=O)Nc1ccc(F)cc1)c1ccccc1 [TDH-001, (R)-2-((4-fluorophenyl)amino)-2-oxo-1-phenylethyl 3-aminopyrazine-2-carboxylate]
Kd (MLKL): 94 nM

Cc1cc(Nc2ncc(Cl)c(Nc3ccccc3S(=O)(=O)C(C)C)n2)c(OC(C)C)cc1C1CCNCC1 [Ceritinib (C2)]
Kd (MLKL): > 10000 nM

Nc1ncc(-c2cnn(C3CCNCC3)c2)nc1C(=O)O[C@@H](C(=O)Nc1ccccc1)c1ccccc1 [TDH-463, (R)-2-oxo-1-phenyl-2-(phenylamino)ethyl 3-amino-6-(1-(piperidin-4-yl)-1H-pyrazol-4-yl)pyrazine-2-carboxylate hydrochloride]
Kd (MLKL): 0.35 nM

Nc1ncc(C2=CCN(C(=O)CCCCCNC(=O)C3CCN(c4cccc5c4C(=O)N(C4CCC(=O)NC4=O)C5=O)CC3)CC2)cc1C(=O)O[C@@H](C(=O)Nc1ccc(F)cc1)c1ccccc1 (stereo partly drawn) [TDH-080, (R)-2-((4-fluorophenyl)amino)-2-oxo-1-phenylethyl 6-amino-1′-(6-(1-(2-(2,6-dioxopiperidin-3-yl)-1,3-dioxoisoindolin-4-yl)piperidine-4-carboxamido)hexanoyl)-1′,2′,3′,6′-tetrahydro-[3,4′-bipyridine]-5-carboxylate]
Kd (MLKL): 120 nM

Nc1ncc(C2=CCN(C(=O)COCCOCCNC(=O)C3CN(c4ccc5c(c4)C(=O)N(C4CCC(=O)NC4=O)C5=O)C3)CC2)cc1C(=O)O[C@@H](C(=O)Nc1ccc(F)cc1)c1ccccc1 (stereo partly drawn) [TDH-087, (R)-2-((4-fluorophenyl)amino)-2-oxo-1-phenylethyl 6-amino-1′-(2-(2-(2-(1-(2-(2,6-dioxopiperidin-3-yl)-1,3-dioxoisoindolin-5-yl)azetidine-3-carboxamido)ethoxy)ethoxy)acetyl)-1′,2′,3′,6′-tetrahydro-[3,4′-bipyridine]-5-carboxylate]
Kd (MLKL): 38 nM

Nc1ncc(C2=CCN(C(=O)COCCOCCNc3cccc4c3C(=O)N(C3CCC(=O)NC3=O)C4=O)CC2)cc1C(=O)O[C@@H](C(=O)Nc1ccc(F)cc1)c1ccccc1 (stereo partly drawn) [TDH-082, (R)-2-((4-fluorophenyl)amino)-2-oxo-1-phenylethyl 6-amino-1′-(2-(2-(2-((2-(2,6-dioxopiperidin-3-yl)-1,3-dioxoisoindolin-4-yl)amino)ethoxy)ethoxy)acetyl)-1′,2′,3′,6′-tetrahydro-[3,4′-bipyridine]-5-carboxylate]
Kd (MLKL): 70 nM

CN(C)c1ccc(NC(=O)[C@H](OC(=O)c2nc(-c3cnn(C4CCNCC4)c3)cnc2N)c2ccccc2)cc1 [TDH-470, (R)-2-((4-(dimethylamino)phenyl)amino)-2-oxo-1-phenylethyl 3-amino-6-(1-(piperidin-4-yl)-1H-pyrazol-4-yl)pyrazine-2-carboxylate hydrochloride]
Kd (MLKL): 3.8 nM

CC(=O)N1CCC(n2cc(-c3cnc(N)c(C(=O)O[C@@H](C(=O)Nc4ccc(F)cc4)c4ccc(Cl)cc4)n3)cn2)CC1 [TDH-325, (R)-1-(4-chlorophenyl)-2-((4-fluorophenyl)amino)-2-oxoethyl 6-(1-(1-acetylpiperidin-4-yl)-1H-pyrazol-4-yl)-3-aminopyrazine-2-carboxylate]
Kd (MLKL): 1.1 nM

Nc1ncc(-c2cnn(C3CCNCC3)c2)nc1C(=O)O[C@@H](C(=O)Nc1ccc(C(F)(F)F)cc1)c1ccccc1 [TDH-459, (R)-2-oxo-1-phenyl-2-((4-(trifluoromethyl)phenyl)amino)ethyl 3-amino-6-(1-(piperidin-4-yl)-1H-pyrazol-4-yl)pyrazine-2-carboxylate hydrochloride]
Kd (MLKL): 6.5 nM

Cc1ccc([C@@H](OC(=O)c2nc(-c3cnn(C4CCNCC4)c3)cnc2N)C(=O)Nc2ccc(F)cc2)cc1 [TDH-320, (R)-2-((4-fluorophenyl)amino)-2-oxo-1-(p-tolyl)ethyl 3-amino-6-(1-(piperidin-4-yl)-1H-pyrazol-4-yl)pyrazine-2-carboxylate hydrochloride]
Kd (MLKL): 1.7 nM

CC(=O)N1CC[C@H](n2cc(-c3cnc(N)c(C(=O)OC(C(=O)Nc4ccc(F)cc4)c4ccccc4)n3)cn2)C1 (stereo partly drawn) [TDH-228, 2-((4-fluorophenyl)amino)-2-oxo-1-phenylethyl 6-(1-((S)-1-acetylpyrrolidin-3-yl)-1H-pyrazol-4-yl)-3-aminopyrazine-2-carboxylate]
Kd (MLKL): 1.2 nM
